Where a chain is given by its changes, count along the chain named. Read-outs that look alike come from different tables or passages of the source. Values belong to the compound of their own block, whether it stands above or below them.
Columns and labels:
Assay type in all cases: cell-based
[1] = test system: LNCaP FGC cells; experiment: Inhibition of proliferation of LNCaP cells (WST-8)
Protocol: The cells were cultured in a cell culture incubator with 5% CO2 at 37° C. overnight. […] On the sixth day, 96 well plates were taken out, and 20 μL of WST-8 (Beytime, C0040) reagent was added to each well.

[2] = target: T1, AR protein (Homo sapiens, UniProt P10275, T878A); experiment: Degradation of AR protein in LNCaP cells (Western blot); details: LNCaP cells, 8 hours, Western blot grayscale, GAPDH internal reference; for inhibition at 0.01 µM: compound 10 nM, read-out: Degradation rates of the AR protein in LNCaP cells, 10 nM (%); for inhibition at 0.1 µM: compound 100 nM, read-out: Degradation rates of the AR protein in LNCaP cells, 100 nM (%)
T1 construct: degradation activity of the compounds disclosed in the present disclosure on AR protein in LNCaP cells; host or cells: LNCaP FGC
T1 sequence (P10275 1-920 T878A): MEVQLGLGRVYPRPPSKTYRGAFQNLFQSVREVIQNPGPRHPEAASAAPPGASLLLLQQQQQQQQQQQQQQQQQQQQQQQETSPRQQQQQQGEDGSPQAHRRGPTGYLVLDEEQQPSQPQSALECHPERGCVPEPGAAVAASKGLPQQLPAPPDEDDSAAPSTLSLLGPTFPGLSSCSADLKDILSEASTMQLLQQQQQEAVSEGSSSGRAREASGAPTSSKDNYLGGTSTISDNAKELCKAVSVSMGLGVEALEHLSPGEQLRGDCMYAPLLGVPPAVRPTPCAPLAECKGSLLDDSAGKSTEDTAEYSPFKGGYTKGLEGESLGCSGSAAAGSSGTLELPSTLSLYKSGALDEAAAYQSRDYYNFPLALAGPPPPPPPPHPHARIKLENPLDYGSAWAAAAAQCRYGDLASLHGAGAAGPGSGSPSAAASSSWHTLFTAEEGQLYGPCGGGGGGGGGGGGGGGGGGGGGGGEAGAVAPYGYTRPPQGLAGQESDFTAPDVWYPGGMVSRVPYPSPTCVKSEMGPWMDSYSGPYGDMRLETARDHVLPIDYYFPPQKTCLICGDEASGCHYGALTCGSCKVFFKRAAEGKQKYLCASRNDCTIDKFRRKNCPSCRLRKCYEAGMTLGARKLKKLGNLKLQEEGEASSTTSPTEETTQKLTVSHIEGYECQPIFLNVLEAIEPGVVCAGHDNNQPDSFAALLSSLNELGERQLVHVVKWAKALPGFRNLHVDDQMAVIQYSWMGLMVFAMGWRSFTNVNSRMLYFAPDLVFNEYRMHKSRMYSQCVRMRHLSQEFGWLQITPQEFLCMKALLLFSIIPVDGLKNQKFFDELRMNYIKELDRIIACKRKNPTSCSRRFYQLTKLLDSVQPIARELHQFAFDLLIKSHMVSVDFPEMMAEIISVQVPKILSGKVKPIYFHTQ
Protocol: The degradation activity of the compounds disclosed in the present disclosure on AR protein in LNCaP cells (cell source: ATCC)
(§1) Corresponding solvent controls were also set and cultured for 8 hours. After 8 hours of cultivation, the culture medium was removed and the cells were washed with PBS. RIPA lysis buffer containing 1% Protease Inhibitor Cocktail was added, and the total protein extract was obtained by lysis and centrifugation. The protein concentration in the extract was detected by BCA method. Protein electrophoresis was performed using SDS-PAGE, followed by transfer of the protein onto a PVDF (Millipore Sigma catalog No. PSRP010R5) membrane at 100V constant voltage for 60 minutes. The PVDF membrane was then placed in a 1×TBST solution with 5% milk and blocked at room temperature for 1 hour. […] The primary antibody solution was discarded and the PVDF membrane was washed three times with 1×TBST for 5 minutes/time. […] The secondary antibody solution was discarded and the PVDF membrane was washed three times with 1×TBST for 5 minutes/time. Western blot imaging was performed by using a dual color infrared laser imaging system (Licor catalog No. Odyssey CLX). Bands were analyzed in grayscale using Image Studio software. For each sample, GAPDH protein bands were detected as internal reference. The degradation rates of the AR protein for the compounds and the positive control sample were calculated based on grayscale of the protein bands.

[3] = target: T2, AR protein (Homo sapiens, UniProt P10275); experiment: Degradation of AR protein in VCaP cells (Western blot); details: 8 hours; for inhibition at 0.01 µM: compound at 10 nM, read-out: Degradation rate of the AR protein in VCaP cells, 10 nM (%); for inhibition at 0.1 µM: compound at 100 nM, read-out: Degradation rate of the AR protein in VCaP cells, 100 nM (%)
T2 construct: degradation activity of the compounds disclosed in the present disclosure on AR protein in VCaP cells; host or cells: VCaP
T2 sequence (P10275 1-920): T1 sequence (P10275 1-920 T878A) with A878T
Protocol: The degradation activity of the compounds disclosed in the present disclosure on AR protein in VCaP cells (cell source: ATCC)
as §1

[4] = Homo sapiens, LNCaP, 96 h, read-out: IC50 for inhibiting the proliferation of LNCaP cells, LNCaP FGC cells, 96 hours, WST-8 absorbance at 450 nm
[5] = LNCaP FGC cells, 96 hours, WST-8 absorbance at 450 nm, read-out: IC50 for inhibiting the proliferation of LNCaP cells
[6] = Homo sapiens, LNCaP, 96 h, LNCaP FGC cells, 96 hours, WST-8 absorbance at 450 nm, read-out: IC50 for inhibiting the proliferation of LNCaP cells

SMILES: CC1(C)C(=O)N(c2ccc(C#N)c(C(F)(F)F)c2)C(=S)N1c1ccc(C(=O)N2CC[C@@H](CN3CCC4(CC3)COc3cc5c(cc3C4)C(=O)N(C3CCC(=O)NC3=O)C5=O)C2)c(F)c1 (stereo partly shown) [Compound 126]
IC50 ([1]; read-out: IC50 for inhibiting the proliferation of LNCaP cells, LNCaP FGC cells, 96 hours, WST-8 absorbance at 450 nm): 4.06 µM

SMILES: CC1(C)C(=O)N(c2ccc(C#N)c(C(F)(F)F)c2)C(=S)N1c1ccc(C(=O)N2CCC(CN3CC4(CCc5cc6c(cc5O4)C(=O)N(C4CCC(=O)NC4=O)C6=O)C3)CC2)c(F)c1 (stereo not shown) [Compound 119]
IC50 [1, 4]: 4.11 µM

IC50 [1, 5]: 0.73 µM
SMILES: CC1(CN2CC3(CCc4cc5c(cc4O3)CN(C3CCC(=O)NC3=O)C5=O)C2)CCN(c2ccc(C(=O)N[C@H]3CC[C@H](Oc4ccc(C#N)c(Cl)c4)CC3)nn2)CC1 (stereo partly shown) [Compound 12]

inhibition at 0.01 µM [2]: 53%
inhibition at 0.1 µM [2]: 75%
IC50 [1, 6]: 5.15 µM
SMILES: N#Cc1ccc(O[C@H]2CC[C@H](NC(=O)c3ccc(N4CCC5(CCC(N6CCC7(CC6)COc6c(ccc8c6C(=O)N(C6CCC(=O)NC6=O)C8)C7)CC5)CC4)nn3)CC2)cc1Cl (stereo partly shown) [Compound 190]

IC50 [1, 6]: 72.7 µM
SMILES: CC1(CN2CCC3(CCc4ccc5c(c4O3)CN(C3CCC(=O)NC3=O)C5=O)CC2)CCN(c2ccc(C(=O)N[C@H]3CC[C@H](Oc4ccc(C#N)c(Cl)c4)CC3)nn2)CC1 (stereo partly shown) [Compound 151]

SMILES: CC1(C)C(=O)N(c2ccc(C#N)c(C(F)(F)F)c2)C(=S)N1c1ccc(C(=O)N2CC3(CCC(N4CCC5(CCc6cc7c(cc6O5)C(=O)N(C5CCC(=O)NC5=O)C7=O)CC4)CC3)C2)c(F)c1 (stereo not shown) [Compound 117]
IC50 [1, 4]: 2.57 µM

IC50 [1, 5]: 23.7 µM
SMILES: COC1(CN2CCC3(CCc4ccc5c(c4O3)CN(C3CCC(=O)NC3=O)C5=O)CC2)CCN(c2ccc(C(=O)N[C@H]3CC[C@H](Oc4ccc(C#N)c(Cl)c4)CC3)nn2)CC1 (stereo partly shown) [Compound 133]

IC50 [1, 5]: 4.35 µM
SMILES: N#Cc1ccc(O[C@H]2CC[C@H](NC(=O)c3ccc(N4CCC(F)(CN5CCC6(CCc7ccc8c(c7O6)CN(C6CCC(=O)NC6=O)C8=O)CC5)CC4)nn3)CC2)cc1Cl (stereo partly shown) [Compound 132]

SMILES: CC1(C)C(=O)N(c2ccc(C#N)c(C(F)(F)F)c2)C(=S)N1c1ccc(C(=O)N2CC(CN3CCC4(CC3)COc3cc5c(cc3C4)C(=O)N(C3CCC(=O)NC3=O)C5=O)C2)c(F)c1 (stereo not shown) [Compound 128]
IC50 [1, 6]: 4.16 µM

SMILES: CC1(C)C(=O)N(c2ccc(C#N)c(C(F)(F)F)c2)C(=S)N1c1ccc(C(=O)N2CC[C@@H](CN3CCC4(CCc5cc6c(cc5O4)C(=O)N(C4CCC(=O)NC4=O)C6=O)CC3)C2)c(F)c1 (stereo partly shown) [Compound 127]
IC50 [1, 6]: 6.28 µM

SMILES: CC1(C)C(=O)N(c2ccc(C#N)c(C(F)(F)F)c2)C(=S)N1c1ccc(C(=O)N2CCC3(CCC(N4CCC5(CCc6cc7c(cc6O5)C(=O)N(C5CCC(=O)NC5=O)C7=O)CC4)CC3)C2)c(F)c1 (stereo not shown) [Compound 129]
IC50 [1, 6]: 3.63 µM

SMILES: CC1(C)C(=O)N(c2ccc(C#N)c(C(F)(F)F)c2)C(=S)N1c1ccc(C(=O)N2CC3(CC(N4CCC5(CC4)COc4cc6c(cc4C5)C(=O)N(C4CCC(=O)NC4=O)C6=O)C3)C2)c(F)c1 (stereo not shown) [Compound 115]
IC50 [1, 4]: 10.8 µM

SMILES: CC1(C)C(=O)N(c2ccc(C#N)c(C(F)(F)F)c2)C(=S)N1c1ccc(C(=O)N2CCC(CN3CCC4(CC3)COc3cc5c(cc3O4)CN(C3CCC(=O)NC3=O)C5=O)CC2)c(F)c1 (stereo not shown) [Compound 111]
IC50 [1, 4]: 5.72 µM

inhibition at 0.01 µM [2]: 67%
inhibition at 0.1 µM [2]: 70%
inhibition at 0.01 µM [3]: 72%
inhibition at 0.1 µM [3]: 57%
SMILES: N#Cc1ccc(O[C@H]2CC[C@H](NC(=O)c3ccc(N4CCC(CN5CCC6(CC5)Cc5cc7c(cc5O6)C(=O)N(C5CCC(=O)NC5=O)C7=O)CC4)nn3)CC2)cc1Cl (stereo partly shown) [Compound 78]

inhibition at 0.01 µM [2]: 52%
inhibition at 0.1 µM [2]: 69%
inhibition at 0.01 µM [3]: 67%
inhibition at 0.1 µM [3]: 70%
SMILES: N#Cc1ccc(O[C@H]2CC[C@H](NC(=O)c3ccc(N4CCC5(CC4)CC(N4CCC6(CCc7cc8c(cc7O6)C(=O)N(C6CCC(=O)NC6=O)C8=O)CC4)C5)nn3)CC2)cc1Cl (stereo partly shown) [Compound 31]

IC50 [1, 6]: 0.39 µM
SMILES: CC1(CN2CCC3(CC2)COc2c(ccc4c2C(=O)N(C2CCC(=O)NC2=O)C4)C3)CCN(c2ccc(C(=O)NC3CCC(Oc4ccc(C#N)c(Cl)c4)CC3)nn2)CC1 (stereo not shown) [Compound 187]

SMILES: CC1(CN2CCC3(CCc4cc5c(cc4O3)C(=O)N(C3CCC(=O)NC3=O)C5=O)CC2)CCN(C(=O)c2ccc(N3C(=S)N(c4ccc(C#N)c(C(F)(F)F)c4)C(=O)C3(C)C)cc2F)CC1 (stereo not shown) [Compound 108]
IC50 [1, 4]: 10.4 µM

SMILES: N#Cc1ccc(O[C@H]2CC[C@H](NC(=O)c3ccc(N4CCC5(CCC(N6CCC7(CC6)COc6c7ccc7c6CN(C6CCC(=O)NC6=O)C7=O)CC5)CC4)nn3)CC2)cc1Cl (stereo partly shown) [Compound 137]
inhibition at 0.01 µM [2]: 68%
inhibition at 0.1 µM [2]: 21%
inhibition at 0.01 µM [3]: 80%
inhibition at 0.1 µM [3]: 90%

SMILES: CC1(C)C(=O)N(c2ccc(C#N)c(C(F)(F)F)c2)C(=S)N1c1ccc(C(=O)N2CCC3(CC2)CC(N2CCC4(CC2)COc2cc5c(cc24)C(=O)N(C2CCC(=O)NC2=O)C5=O)C3)c(F)c1 (stereo not shown) [Compound 122]
IC50 [1, 4]: 13.7 µM

SMILES: N#Cc1ccc(O[C@H]2CC[C@H](NC(=O)c3ccc(N4CCC5(CC4)CC(N4CCC6(CC4)COc4cc7c(cc46)C(=O)N(C4CCC(=O)NC4=O)C7=O)C5)nn3)CC2)cc1Cl (stereo partly shown) [Compound 47]
inhibition at 0.01 µM [2]: 54%
inhibition at 0.1 µM [2]: 67%
inhibition at 0.01 µM [3]: 82%
inhibition at 0.1 µM [3]: 79%

Source: patent US20260234157A1, “COMPOUND AND METHOD FOR TARGETED DEGRADATION OF ANDROGEN RECEPTOR” (Gan & Lee Pharmaceuticals Co., Ltd., priority 2023, published 2026)
